# Experimental data from US7910624B1, “Compositions for the treatment of blood disorders” (The Trustees of Boston University, priority 1995, dated 2011).
# Columns and labels:
# [1] = test system: system A transport in K562 cells and nucleated erythroblasts from fetal liver; assay: System A (neutral amino acid) transport, 3H-MAIB uptake; format: cell-based, human; conditions: 1 hour incubation, FIG. 12
# Description: Inhibition of nutrient uptake is undesirable for treatment of anemias. Methyl aminoisobutyric acid (MAIB) labeled with tritium (^3H) is normally taken up by system A amino acid transport. Cold (unlabeled) compounds were added to cultures containing ^3H-MAIB and incubated for 1 hour. Cells were harvested and the amount of ^3H taken up by cells was quantitated by scintillation counting.
# anemic juvenile baboons = assay: In vivo reticulocyte proliferation and globin expression in phlebotomized anemic baboons; set-up: species or system baboon
# Summary of the method: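 Juvenile female baboons, phlebotomized daily to hemoglobin 7.0-7.5 g/dl, received compounds sequentially with washout to baseline reticulocytes, each animal its own control. HbF-positive reticulocytes were counted by dual-antibody FACS. γ/(γ+β) globin synthesis ratio came from ^3H-leucine labeling and chromatographic chain separation, unadjusted for phlebotomy.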
# K562 cells = assay: Dose response, total and viable cells by trypan blue exclusion (FIG. 3); format: cell-based, human; conditions: day 4
# Description: FIG. 3 A FIG. 3E Cell viability as determined by the comparative numbers of total and viable K562 cells in the presence of increasing concentrations of (A) phenoxyacetic acid, (B) dihydrocinnamic acid, (C) butyric acid ethyl ester, (D) arginine butyrate, and (E) isobutyramide.
# Dose response curves at dosages of up to 2.0 mM were also determined for phenoxyacetic acid (PAA; FIG. 3A), dihydrocinnamic acid (DHC; FIG. 3B), butyric acid ethyl ester (BAEE; FIG. 3C), arginine butyrate (AB; FIG. 3D) and isobutyramide (IBT; FIG. 3E). Cells were counted on day 4 of treatment and viable cells identified by trypan blue exclusion.
# [2] = test system: erythroid cells (peripheral blood cells); assay: Erythroid cell viability by Calcein-AM fluorescent staining (FIG. 2); format: cell-based
# Description: Compositions were tested for the ability to directly stimulate erythroid cell growth. Cell growth stimulation is a useful property for an agent to be used to treat anemias and distinguishes such agents from the cytotoxic drugs currently being tested for treatment of hemoglobinopathies. Cell viability analyses were performed using fluorescent staining to detect living cells. Cells were in log phase of growth in 6-well dishes when used in proliferation assays. For enumeration of living cells, wells were washed once with medium to remove nonadherent or dead cells. Remaining live cells were labeled with 2 μM 2′,7′-bis-(carboxyethyl)-5-(and 6)-carboxy-fluorescein acetoxy-methyl ester (Calcein-AM) (Molecular Probes; Eugene, Oreg.) for 20 minutes at 37° C. and washed once. Fluorescence intensity of live cells was read on a CytoFluor 2300 Fluorescence Plate Scanner (Millipore; Bedford, Mass.) at excitation and emission wavelengths of 485 and 530 nm, respectively. The fluorescence intensity of a well was proportional to the number of living cells in the well. Background fluorescence was measured separately for each plate and subtracted from all readings. Each experiment was performed in triplicate or quadruplicate. The standard deviation (SD) of repetitive readings was less than 30% of the mean. Results are depicted in FIG. 2.
# [3] = test system: Human erythroleukemia cells; assay: Fetal globin mRNA in erythroleukemia cells by primer extension; format: cell-based; conditions: 1.0 mM, 4 days
# Description: Compounds were tested for increased expression of the human globin genes in human erythroid cells. In addition, as the cell line being tested is a tumor cell line, the assay determines if differentiation, a growth inhibitory effect on cancer cells, is induced by the compounds tested. Human erythroleukemia cells were cultured in RPMI media with 10% fetal calf serum alone or with treatment with various compounds for 4 days. Globin mRNA was quantitated by primer extension analysis. Fetal globin mRNA was compared to the amount of fetal globin mRNA produced in untreated cells during the same culture period. The quantitation was expressed as a percent of alpha globin mRNA which was constant. Results are expressed proportional to α-globin mRNA (Table 3).
# [4] = test system: human erythroid cell line K562; assay: Cell viability / growth of K562 by Calcein-AM fluorescence; format: cell-based; conditions: over 3 days
# Description: Such activities might limit their utility for treatment of anemias such as occur in thalassemia, but alternatively would be useful for anticancer effects. To determine cell viability, human erythroid cells were cultured in the presence and absence of these compounds for 4 days and the amount of DNA fragmentation which occurred was measured.
# Cell viability analyses were performed using fluorescent staining to detect living cells. Cells were in log phase of growth in 6-well dishes when used in proliferation assays. For enumeration of living cells, wells were washed once with medium to remove nonadherent or dead cells. Remaining live cells were labeled with Calcein-AM for 20 minutes at 37° C. and washed once. Fluorescence intensity of adherent live cells was read on a CytoFluor 2300 Fluorescence Plate Scanner (Millipore; Bedford, Mass.) at excitation and emission wavelengths of 485 and 530 nm, respectively. The fluorescence intensity of a well was proportional to the number of living cells in the well. Background fluorescence was measured separately for each plate and subtracted from all readings. Each experiment was performed in triplicate or quadruplicate. The standard deviation (SD) of repetitive readings was less than 30% of the mean.
# At higher concentrations, still easily achievable in vivo, arginine butyrate (0.5 mM) and dihydrocinnamic acid (greater than 0.5 mM) inhibited growth of this tumor cell line by approximately 50%. Therefore, these compounds are also useful as anti-tumor agents.
# [5] = 1,000 to 1,500 mg/kg/day, 4 days
smiles,measurement,setting,value
"CCCC(=O)O [AB, arginine butyrate]",system A transport of amino acids (3H-MAIB uptake),[1],inhibited the neutral amino acid transport mechanism
same,response of the same monkey,"anemic juvenile baboons; 1,000 mg/kg for 5 days or 2,000 mg/kg for 3 days",had not responded
same,"cell growth (dose response, FIG. 3)",K562 cells; concentrations above 0.2 mM,suppressed cell growth
same,erythroid cell growth and proliferation compared to untreated controls (FIG. 2),[2]; 0.2 mM,inhibited proliferation
same,erythroid cell growth and proliferation compared to untreated controls (FIG. 2),[2]; 0.5 mM,inhibited proliferation
same,induction of fetal globin mRNA in human cells,[3],significantly increased
same,growth of K562,[4]; 0.2 mM,"either did not inhibit, or slightly enhanced growth"
"O=C(O)COc1ccccc1 [PAA, Phenoxyacetic acid]",system A transport of amino acids (3H-MAIB uptake),[1]; listed as phenoxy acetic acid,caused no significant inhibition and actually increased uptake of nutrients into cells
same,system A transport of amino acids (3H-MAIB uptake),[1]; listed as phenoxyacetic acid,do not significantly alter
same,time the effect maintained itself after drug was discontinued,"anemic juvenile baboons; 1,500 mg/kg each day, 5 days",two days
same,reticulocytes after treatment,"anemic juvenile baboons; 1,500 mg/kg each day, 5 days, from 1.9%",9.2 % of all red blood cells
same,white blood cell count after treatment,"anemic juvenile baboons; 1,500 mg/kg each day, 5 days, from 6.9",9.5 ×10^3 cells/μl
same,packed red blood cell volume after treatment,"anemic juvenile baboons; 1,500 mg/kg each day, 5 days, from 22%",25.4%
same,"fetal reticulocytes, fold above baseline",anemic juvenile baboons; [5],eight-fold
same,"fetal reticulocytes, percent above baseline",anemic juvenile baboons; [5],800%
same,increase in output of fetal globin production over basal levels,anemic juvenile baboons; [5],"4,000%"
same,fetal globin protein synthesis after treatment,"anemic juvenile baboons; 1,000 to 1,500 mg/kg/day, 4 days, from 0%",5%
same,fetal reticulocytes after treatment,"anemic juvenile baboons; another juvenile baboon, intravenous 1,000 to 1,500 mg/kg/day, 4 days, from 2%",16%
same,total hemoglobin after treatment,"anemic juvenile baboons; infused 1,500 mg/kg each day, 5 days (FIG. 7), from 6.8",7.6 grams/dl
same,proportion of fetal reticulocytes on treatment,"anemic juvenile baboons; infused 5 days, 500, 1,000 and 1,500 mg/kg (8 hours each), after 3 days (FIG. 9), from 12%",27%
same,"proliferation (dose response, FIG. 3)",K562 cells; up to 2.0 mM,did not significantly inhibit proliferation
same,erythroid cell growth and proliferation compared to untreated controls (FIG. 2),[2]; 0.5 mM,either had no effect or stimulated erythroid cell growth and proliferation
same,induction of fetal globin mRNA in human cells,[3],significantly increased
same,Gamma/Alpha (fetal globin mRNA proportional to α-globin mRNA),[3]; untreated 0.46,0.70
same,Gamma Globin mRNA (increase ↑),[3]; versus untreated,24% ↑
same,growth of K562,[4]; 0.5 mM,"either did not inhibit, or slightly enhanced growth"
